According to US20140018418A1 (priority 2007, published 2014):
Read-outs that look alike come from different tables or passages of the source.

Tests used:
[1] = system: H5N1 influenza virus A/Hanoi/30408/2005 (clone 7), oseltamivir sensitive strain; test: microbe, parasite or virus in culture; assay type: cell-based
[2] = system: A/Hanoi/UT30408(clone 7)/2005 (H5N1); parameters: species or system mice (Balb/c); settings: mouse, in vivo

For `CO[C@@H]([C@@H]1OC(C(=O)O)=C[C@H](NC(=N)N)[C@H]1NC(C)=O)[C@H](O)CO` [Compound of Preparation Example 2, 5-Acetamido-4-guanidino-2,3,4,5-tetradeoxy-7-O-methyl-D-glycero-D-galacto-non-2-enopyranosoic acid], the IC50 ([1]; Influenza A virus, H5N1, MDCK, read-out: Viral Proliferation Inhibitory Activity (IC50, nM)) was 0.43 nM.
For `CC(=O)N[C@H]1[C@H]([C@H](O)[C@H](O)CO)OC(C(=O)O)=C[C@@H]1N=C(N)N` [Zanamivir, reference compound], the IC50 ([1]; read-out: Viral Proliferation Inhibitory Activity (IC50)) was 3.3 nM.
For “5-Acetamido-4-guanidino-9-O-octanoyl-2,3,4,5-tetradeoxy-7-O-methyl-D-glycero-D-galacto-non-2-enopyranosoic acid [Compound of Preparation Example 1]”, the “number of mice surviving, Day 10” value [2] was 7.
